Ends that are not written are not given here.
Experiments:
[1] = system: neuromuscular transmission; test: Electromyographic assay of neuromuscular transmission in mice after injection; format: in vivo; details: for activity of QAE-Sephadex fractions in producing neuromuscular block: fractions of Example 1, FIG. 3; for dose above which a statistically significant (P < .001) electromyographic decrement was produced / mean decrement: height of the tenth muscle action potential as % of the first: mice; for dose above which a statistically significant (P < .001) electromyographic decrement was produced: five days after dose, supramaximal nerve stimulation at 50 impulses per second; for mean decrement: height of the tenth muscle action potential as % of the first: five days after doses above threshold, 50 impulses per second, controls 94 ± 2%; for active dose range per body weight: test not specified
Method: To determine the neuromuscular action of Thymin I and Thymin II, the electromyographic response of mice five days after various doses of Thymin I or Thymin II is summarized in FIG. 4. Bovine serum albumin (0.5 mg/ml, 0.9% saline) was used as a protein stabilizer and controls were injected with the solvent alone.
In 15 control mice sampled at 75 sites the height of the tenth muscle action potential was 94 ± 2% (mean ± s.e.m.) of the height of the first. The mean values and s.e.m. (vertical bars) are shown for groups of 4-10 mice given various doses of Thymin I(o) and Thymin II (.quadrature.). Statistical significances of differences from the controls were calculated by Student's t-test and are shown by solid symbols (P < 0.001), half solid symbols (0.05 > P < 0.001) and open symbols (P > 0.05).
Mice were given 100 ng of Thymin I or solvent and five mice from each group were tested at various times. With supramaximal nerve stimulation at 50 impulses per second the height of the tenth muscle action potential was expressed as a percentage of the first. This change was calculated for five points in each of five to ten mice from each group. For each time point the change in Thymin-treated mice was expressed as a percentage of the change in solvent-treated control mice and the statistical significance of the difference was assessed by Student's t-test. A statistically significant (P < .001) abnormality in the electromyogram was first evident at 18 hours, was maximal at 24 hours and persisted through 5 days.
To make the determinations described in FIGS. 4 and 5, extracts were injected into test animals and neuromuscular transmission was studied after an interval of one to five days. Initially 100 g guinea pigs were injected intraperitoneally; neuromuscular transmission was studied in vitro with a preparation of the phrenic nerve and hemidiaphragm. Subsequently, 200 g rats were used; fractions were injected subcutaneously and neuromuscular transmission was assessed electromyographically. […] Female Swiss-Webster mice weighing 25-35 g were injected intraperitoneally, groups of five to ten mice being used to test each fraction. The animals were anesthetized with urethane and electromyography was performed as described. The muscle action potentials were recorded in each mouse following supramaximal nerve stimulation with ten impulses at a rate of 50 per second. Five sites were sampled in each mouse and for each group of mice the mean standard deviation and s.e.m. were calculated for the change in the height of the muscle action, potential being expressed as a percentage of the height of the first impulse.
The statistical significance of differences found were assessed by student's t-test.

[2] = system: TL antigen on mouse bone marrow cells; test: Cytotoxic inhibition test: induction of TL antigen on bone marrow cells; format: cell-based; details: for absorption of anti TL antibody by incubated bone marrow cells: unfractionated cells, 100 ng/ml, 18 hours
Excerpt: (§1) Mice of the A/J, C57B1/6J, AKR/J and C58/J strains were purchased from the Jackson Laboratories (Bar Harbon, Me). A.TL-mice were bred at New York University from foundation stock. All mice were housed eight to a cage, and maintained on commercial high protein mouse pellets and acidified water.
(§2) Antibodies to TL antigen were produced by injecting live tumor cells (ASL-1) into A.TL- x C57B1/6J F.1 mice. After five semimonthly injections the animals were bled and the resultant serum pooled, absorbed with A.TL- thymus to remove autoantibodies, and stored in small aliquots at -70° C. […] Anti Thy 1-2 (0-C3H) was produced by injecting AKR/J mice with C58/J thymocytes and absorbing the resultant antiserum with AKR/J thymocytes.
Thymin I and Thymin II were isolated from bovine thymus as described. Each was dissolved in phosphate buffered saline (containing 1 mg/ml of bovine serum albumen to minimize adsorbtive losses), distributed into 2 μg lots and lyophilized. Each polypeptide was reconstituted in tissue culture medium at the desired concentrations just prior to use.
(§3) Bone marrow cells were obtained from the femoral marrow. Both spleen and marrow cells were teased into single cell suspensions and washed three times in RPMI 1640 medium supplemented with 10 mM Hepes and 100 U/ml of penicillin and 100 μg/ml of streptomycin. The cells were then suspended in the same medium with 10% bovine serum at a concentration of 5.0×10^6 cells/ml. One milliliter of this suspension was incubated with an appropriate dilution of thymin in 16 mm plastic petrie dishes in a humidified atmosphere containing 5% CO2 in air. At the end of the incubation the cells were washed twice and held at 4° C. at a concentration of 5.0×10^6 cells/ml in culture medium until tested for the presence of TL or Thy-1(0).
ASL-1, a TL positive, Thy 1-2 (0-C3H) positive lymphoma of A strain mice was used as the target cell in all titrations of the antisera used in these experiments, and in the cytotoxic inhibition test to be described below. The lymphoma was maintained by weekly intraperitoneal passage in A/J mice. Lymophoma cells were labelled with Cr^51 and used as target cells in the cytotoxic inhibited test.
Antisera to either TL or Thy-1 (0) were titered to determine the quantity of antibody which was required to kill 50% of the target cells in a standard suspension. The appropriate amount of antiserum was added to each well of a microtiter plate with various dilutions of the cells being tested for their antigen content. The total volume was 0.15 ml. Cells expressing the antigen against which the antiserum was directed absorbed varying amounts of the antibody, and rendered less available to react with the Cr^51 labelled target cells which were added subsequently. The concentration of antibody used was extremely critical to the sensitivity of the test. The antisera to TL or Thy-1 (0) and the cells being tested for their antigen content were incubated together at 4° C. for 90 minutes. After this incubation 50,000 target cells in a volume of […] were added and the incubation continued in the cold for an additional 30 minutes to permit the sensitization of the target cells by the remaining unabsorbed antibody. The plates were then centrifuged at 1,500 rpm for 10 minutes and the supernatant fluid removed. The pelleted cells were resuspended in 0.1 ml or RPMI 1640, containing 4% fresh rabbit serum as a source of complement, and incubated for 45 minutes at 37° C. The cells were then repelleted by centrifugation and a 0.075 ml aliquot of the supernatant fluid was counted in an automatic gamma spectrometer to determine the amount of Cr^51 released from the target cells. All assays were performed in duplicate and the results were expressed by calculating the number of cells required to reduce the relative cytotoxic index (RCI) to 0.5. The RCI was calculated as follows: [formula]

[3] = system: Thy-1(θ) antigen on mouse bone marrow cells; test: Cytotoxic inhibition test: induction of Thy-1(θ) antigen on bone marrow cells; format: cell-based; details: unfractionated cells, 100 ng/ml, 18 hours
Excerpt: as §1, §2
Thymin I and Thymin II were isolated from bovine thymus as described. Each was dissolved in phosphate buffered saline (containing 1 mg/ml of bovine serum albumen to minimize adsorbtive losses), distributed into 2 μg lots and lyophilized. […]
Antisera to either TL or Thy-1 (0) were titered to determine the quantity of antibody which was required to kill 50% of the target cells in a standard suspension. […] The cells were then repelleted by centrifugation and a 0.075 ml aliquot of the supernatant fluid was counted in an automatic gamma spectrometer to determine the amount of Cr^51 released from the target cells. […] The RCI was calculated as follows: [formula]

[4] = system: bone marrow cells (least dense BSA gradient fraction); test: Direct cytotoxic test (trypan blue), anti TL antiserum plus complement, bone marrow cells; format: cell-based
Method: as §3
(§4) Bone marrow and spleen cells were obtained by flotation in BSA gradients similar to those used by Komuro and Boyse (Lancet, 10, 39, 1964). These cells were tested for their susceptibility to anti TL and Thy-1-(0) antibodies in a direct cytotoxicity test, using the uptake of trypan blue as a measure of cell death.

[5] = system: spleen cells (least dense BSA gradient fraction); test: Direct cytotoxic test (trypan blue), anti TL antiserum plus complement, spleen cells; format: cell-based, mouse; details: 20 ng/ml for two hours
Method: as §3, §4

[6] = Thymin I compared with Thymin II
[7] = single injection of 100 ng per mouse

Substance	relative activity on neuromuscular transmission [1, 6]	activity of QAE-Sephadex fractions in producing neuromuscular block [1]	dose above which a statistically significant (P < .001) electromyographic decrement was produced [1]	mean decrement: height of the tenth muscle action potential as % of the first [1] [%]	time at which abnormality in the electromyogram was maximal [1, 7] [h]	time through which abnormality in the electromyogram persisted [1, 7] [days]	time at which abnormality in the electromyogram was first evident ([1]; single injection of 100 ng per mouse, P < .001) [h]	active dose range per body weight [1]	active concentration as a fraction of that of the Bach et al. preparation [2]	relative potency in inducing TL and Thy-1(θ) antigens [2, 6]	concentration giving maximal induction of TL and Thy-1(θ) antigens ([2]; bone marrow cells) [ng/mL]	lowest concentration producing a measurable (detectable) response ([2]; bone marrow cells) [pg/mL]	absorption of anti TL antibody by incubated bone marrow cells [2]	absorption of anti Thy-1(θ) antibody by incubated bone marrow cells [3]	death of bone marrow cells caused by anti TL antiserum plus complement ([4]; 20 ng/ml for two hours, least dense fraction) [%]	highest cell death values obtained in other experiments ([4]; anti TL antiserum plus complement, tissue not specified) [%]	death of spleen cells caused by anti TL antiserum plus complement [5] [%]
GQFLEDPSVLTKEKLKSELVANNVTLPAGEQRKDVYVQLYLQHLTAVKR [Thymin I, H2 -gly-gln-phe-leu-glu-asp-pro-ser-val-leu-thr-lys-glu-lys-leu-lys-ser-glu-leu-val-ala-asn-asn-val-thr-leu-pro-ala-gly-glu-gln-arg-lys-asp-val-tyr-val- gln-leu-tyr-leu-gln-his-leu-thr-ala-val-lys-arg-cooh]	slightly more active	active in producing neuromuscular block	above 4 ng/mouse	84	24	≥ 5	18	above 0.1 mg/kg of body weight	approximately one thousandth	slightly more potent	2	20	absorbed antibodies	absorbed antibodies	21	≤ 28	18
H2 n-ser-gln-phe-leu-glu-asp-pro-ser-val-leu-thr-lys-glu-lys-leu-lys-ser-glu- leu-val-ala-asn-asn-val-thr-leu-pro-ala-gly-glu-gln-arg-lys-asp-val-tyr-val-gln-leu-tyr-leu-gln-thr-leu-thr-ala-val-lys-arg-cooh [Thymin II]		active in producing neuromuscular block	above 32 ng/mouse	82				above 0.1 mg/kg of body weight					absorbed antibodies	absorbed antibodies			

Source: US4077949A, “Polypeptide hormones of the thymus” (Sloan-Kettering Institute for Cancer Research, priority 1975, dated 1978)
